This passage reports apoptosis and solubility results from patent publication US20130085115A1, “COMBINATION THERAPY FOR LYMPHOMA” (Celgene Corporation, priority 2011, published 2013).

Where two headings read alike, the source gives them in different places.

One series concerns CTCL cells. The series can be described thus: Apoptosis by Annexin V-FITC flow cytometry in CTCL cell lines. It is filed as cell-based, Human. The settings on record: Annexin V assay measured by flow cytometry; FIGS. 5A-5D. The protocol:
Human CTCL cell lines (Hut78, SeAx, and MyLa) were grown in RPMI 1640 medium supplemented with 10% heat-inactivated fetal bovine serume (FBS), glutamine (2 mM) and streptomycin (100 μg/ml) at 37° C., 5% CO2 and 95% humidity.
Romidepsin was used in a concentration ranging from 0.25 nM to 10 μM. 5-azacitidine was used in a concentration ranging from 500 nM to 10 μM. After 24 to 72 hours of the combined drug treatment, the levels of apoptosis and necrosis were measured by flow cytometry with Annexin V-FITC detection kit.
Background: Flow cytometry measures light scatter and fluorescence of single cells or particles in a stream.

The conditions of series [1]: cited from earlier work.

`C/C=C1\NC(=O)[C@H]2CSSCC/C=C/[C@H](CC(=O)N[C@H](C(C)C)C(=O)N2)OC(=O)[C@H](C(C)C)NC1=O` [romidepsin, (1S,4S,7Z,10S,16E,21R)-7-ethylidene-4,2′-bis(1-methylethyl)-2-oxa-12,13-dithia-5,8,20,23-tetrazabicyclo[8.7.6]tricos-16-ene-3,6,9,19,22-pentone] came in with an apoptosis in the series with CTCL cells of 18.8%.

Consider `Nc1ncn([C@@H]2O[C@H](CO)[C@@H](O)[C@H]2O)c(=O)n1` [5-azacitidine, 4-amino-1-β-D-ribofuranozyl-s-triazin-2(1H)-one], for which, in the series on CTCL cells, the apoptosis stood at 21.4%. The solubility result in series [1] (acetone, ethanol and methyl ketone) was “insoluble”; in series [1] (dimethylsulfoxide (DMSO)), “soluble”; in series [1] (ethanol/water (50/50), propylene glycol and polyethylene glycol), “slightly soluble”; in series [1] (water, water-saturated octanol, 5% dextrose in water, N-methyl-2-pyrrolidone, normal saline and 5% Tween 80 in water), “sparingly soluble”.
